Reference: ChEMBL document CHEMBL1142675, “CH...O and CH...N hydrogen bonds in ligand design: a novel quinazolin-4-ylthiazol-2-ylamine protein kinase inhibitor” (J Med Chem, 2005)

target: Glycogen synthase kinase-3 (Homo sapiens, UniProt P49840+P49841); test: Inhibition of Glycogen synthase kinase-3; format: protein assay

Ki | SMILES
> 2 µM | Cc1cc(Nc2nc(-c3ccccc3)nc3ccccc23)no1
2.5 µM | Cc1cc(Nc2cc(-c3ccccc3)nc3ccccc23)[nH]n1
23 µM | Cc1n[nH]c(Nc2nc(-c3ccccc3)nc3ccccc23)n1
0.15 µM | Cc1cnc(Nc2nc(-c3ccccc3)nc3ccccc23)s1
0.11 µM | c1ccc(-c2nc(Nc3cc[nH]n3)c3ccccc3n2)cc1
0.024 µM | Cc1cc(Nc2nc(-c3ccccc3)nc3ccccc23)n[nH]1
0.25 µM | c1ccc(-c2nc(Nc3nc[nH]n3)c3ccccc3n2)cc1
